Measured values: US20220409562A1, “Treatment or Prevention of Ischaemic Stroke Reperfusion Injury” (Cambridge Enterprise Limited, priority 2019, published 2022)
Entries after “also recorded” stand apart in the source; their conditions may differ.

What was measured:
[1] = tested on: transient middle cerebral artery occlusion (MCAO) in C57Bl6J mice; test: Transient middle cerebral artery occlusion (MCAO) model, infarct volume and cerebral blood flow; format: in vivo; conditions: given i.v. for 20 minutes starting just prior to reperfusion; 45 min ischemia, 2 h reperfusion; vs saline/vehicle control
From the text: Male C57Bl6J mice, 6-8 weeks old, were anesthetized with 3% isoflurane and anaesthesia was maintained on 1.5-2% isoflurane. A Doppler flowmetry probe (Perimed, Sweden) was attached to the skull to continuously monitor the cerebral blood flow. Left common carotid artery (CCA) and left external carotid artery were exposed and permanently ligated. Left […] was clamped temporarily. Next, an incision was made on CCA and a filament with a silicon tip (0.22 mm in diameter, 2-3 mm in length, Doccol, USA) was inserted and guided forward into internal carotid artery until it reached middle cerebral artery (MCA). The occlusion of MCA was confirmed by seeing at least 70% drop in cerebral blood flow. […]
At the end of reperfusion, mice were sacrificed by cervical dislocation; brain was collected and sliced at 2 mm thicknesses and stained with 2% triphenyltetrazolium chloride in saline at 37 C for 10-15 min. […] The healthy tissue area (red-stained) in both hemispheres was measured using ImageJ. The infarct volume % was calculated by first calculating the volume of healthy tissue in each hemisphere (Σarea of each slice×thickness of slice), then by the formula: ((volume of healthy tissue in uninjured hemisphere −volume of healthy tissue in injured hemisphere) ÷volume of healthy tissue in uninjured hemisphere)×100. […]

ischemia = conditions: administered prior to and throughout ischemia; cited from earlier work
[2] = tested on: C2Cl2 mouse myoblast cells; test: Malonate uptake in vitro (LC-MS of cell extracts); format: in vitro ADME; conditions: for malonate concentration within the cell: allowing for a cell volume of 260 mg protein/ml
Protocol: We first explored whether malonate could be taken up by cells in culture. C2Cl2 mouse myoblast cells were plated at 300,000 cells/well and adhered overnight. The next day, cells were treated with either DSM (a—0.25 mM; b—0.25, 1 or 5 mM) or untreated for 0 to 240 min before cooling plates on ice and rapidly washing 4 times with ice-cold PBS and placed on dry ice. Cells were extracted for mass spectrometry with 500 μl extraction buffer (50% methanol, 30% acetonitrile and 20% water) with 1 nmol ^13C-malonate internal standard centrifuged to remove insoluble debris.

[3] = Malonate uptake in vivo (tissue levels after tail vein bolus, LC-MS/MS); parameters: species or system C57/BL6 mice; conditions: 160 mg/kg tail vein bolus, 5 min after injection, normoxic mouse
Protocol: To see if this uptake also occurred in vivo, we injected disodium malonate into a normoxic mouse by a bolus in the tail vein and measured the malonate levels in tissues 5 min later. C57/BL6 mice were tail vein injected with DSM (160 mg/kg) before cervical dislocation 5 min after the injection, tissues harvested and clamp frozen in liquid nitrogen. For tissue analysis, tissues were weighed and extracted in 25 μl/mg extraction buffer containing internal standard and homogenised in a Precellys 24 homogeniser. Homogenates were centrifuged to remove insoluble debris. Extracts were analysed by LC-MS/MS and the levels of malonate assessed by interpolation of a malonate standard curve.

Row | SMILES | necrotic brain infarct volume [1] | protective effect (ischemia) | intracellular malonate levels ([2]; 5 mM DSM, after 5 min (FIG. 4b)) [nmol/mg protein] | malonate uptake into cells ([2]; 0.25, 1 or 5 mM, 0 to 240 min (FIG. 4b)) | malonate concentration within the cell ([2]; after 5 min incubated with 250 μM) | malonate concentration within the cell ([2]; after 5 min incubated with 5 mM) | intracellular malonate levels ([2]; incubated with 250 μM disodium malonate (FIG. 4a)) | tissue levels of malonate, brain [3] | tissue levels of malonate, heart [3] | tissue levels of malonate, kidney [3] | tissue levels of malonate, liver [3]
1 | COC(=O)CC(=O)OC [DMM, dimethyl malonate] | no significant difference; also recorded: not effective | protective | – | – | – | – | – | – | – | – | –
2 | O=C([O-])CC(=O)[O-].[Na+].[Na+] [DSM, disodium malonate] | decreased | – | ~2 | both dose and time-dependent | about 50 | ~500 | 0.2-0.4 nmol/mg protein | uptake | significant amounts | particularly high | significant amounts
